# Data taken from patent US20200231562A1, “NOVEL MACROLIDE ANTIBIOTICS” (HELMHOLTZ-ZENTRUM FÜR INFEKTIONSFORSCHUNG GMBH, priority 2014, published 2020).
# Like-named read-outs stand apart in the source and are kept apart here.
# Assays:
# Format in all cases: cell-based
# [1] = tested on: methicillin-resistant S. aureus (MRSA); test: Bouillon dilution assay (MIC90); conditions: Staphylococcus aureus, tryptic soy broth, 37° C., 16 h
# Procedure: Before incubation, 3 was added in decreasing concentrations ([…] to 12.5 μg/ml). After incubation, the OD600 was measured. The experiment was run in triplicate. Ciprofloxacin was used as a positive control.
# [2] = tested on: Bacillus subtilis ATCC 6633; test: Agar diffusion assay; conditions: ATCC6633, 50 μL of 0.5 mg in 1 mL methanol per 7 mm hole, n.a. = no activity observed, read-out: diameter of inhibition zone
# Procedure: (§1) Antimicrobial activities of the gulmirecins were determined in a primary screen against Bacillus subtilis ATCC 6633, Staphylococcus aureus SG511, Staphylococcus auricularis DSM 20609, Mycobacterium vaccae IMET 10670, Pseudomonas aeruginosa K799/61, Escherichia coli SG458, Sporobolomyces salmonicolor SBUG 549, Candida albicans ATCC14053 and Penicillium notatum JP 36. To this end, holes with 7 mm diameter were aseptically punched in the respective agar medium. Subsequently, the agar plates were inoculated with the test organisms. 0.5 mg of every test compound was dissolved in 1 mL of methanol, and 50 μL of this solution was transferred to a single hole. Ciprofloxacin and amphotericin B served as positive controls. After evaporation of the solvent, the agar plates were incubated depending on the growth conditions of the test organisms. […] The test results are shown in Table 6 below, wherein the given values represent the diameters of the respective inhibition zone in the agar diffusion assay.
# [3] = tested on: Pseudomonas aeruginosa K799/61; test: Agar diffusion assay; conditions: 50 μL of 0.5 mg in 1 mL methanol per 7 mm hole, n.a. = no activity observed, read-out: diameter of inhibition zone
# Procedure: as §1
# [4] = tested on: Mycobacterium vaccae IMET 10670; test: Agar diffusion assay; conditions: Mycolicibacterium vaccae, IMET10670; 50 μL of 0.5 mg in 1 mL methanol per 7 mm hole; n.a. = no activity observed; read-out: diameter of inhibition zone
# Procedure: as §1
# [5] = tested on: Staphylococcus auricularis DSM 20609; test: Agar diffusion assay; conditions: DSM20609, 50 μL of 0.5 mg in 1 mL methanol per 7 mm hole, n.a. = no activity observed, read-out: diameter of inhibition zone
# Procedure: as §1
# [6] = tested on: Staphylococcus aureus SG511; test: Agar diffusion assay; conditions: 50 μL of 0.5 mg in 1 mL methanol per 7 mm hole, n.a. = no activity observed, read-out: diameter of inhibition zone
# Procedure: as §1
# [7] = tested on: Escherichia coli SG458; test: Agar diffusion assay; conditions: 50 μL of 0.5 mg in 1 mL methanol per 7 mm hole, n.a. = no activity observed, read-out: diameter of inhibition zone
# Procedure: as §1
# [8] = tested on: Chinese hamster ovary CHO-K1 cells (ACC-110); test: Cytotoxicity (MTT) assay, antiproliferative activity; conditions: Cricetulus griseus, 120 h, CHO-K1, 5 d incubation
# Procedure: (§2) Half maximal inhibitory concentrations (IC50) in μg/ml of disciformycin A (1) and disciformycin B (2) for inhibiting the proliferative activity of human HCT-116 colon carcinoma cells, mouse fibroblast cells L929, and Chinese hamster ovary CHO-K1 cells were determined. Cells were seeded at 6×10^3 cells per well of 96-well plates (Corning CellBind®) in complete medium (180 μl) and directly treated with disciformycin dissolved in DMSO in serial dilution. The compound was tested in duplicate, as well as the internal solvent control. After 5 d incubation, 5 mg/ml MTT in PBS (20 μL) was added per well and it was further incubated for 2 h at 37° C. The medium was then discarded and cells were washed with PBS (100 μl) before adding 2-propanol/10N HCl (250:1, v/v; 100 μl) in order to dissolve formazan granules. The absorbance at 570 nm was measured using a microplate reader (EL808, Bio-Tek Instruments Inc.). The amount of formazan, i.e. relative absorption, is thereby proportional to the number of actively proliferating cells.
# [9] = tested on: HCT-116 colon carcinoma cells (ACC-581); test: as above; conditions: Homo sapiens, 120 h, HCT-116, 5 d incubation
# Procedure: as §2
# [10] = tested on: Mouse fibroblast cells L929 (ACC-2); test: as above; conditions: 120 h, L929, 5 d incubation
# Procedure: as §2
# [11] = tested on: S. aureus N315 mutant Mt50DscA.11; test: Susceptibility (MIC) of Disciformycin A-resistant mutant; conditions: Staphylococcus aureus
# [12] = tested on: S. aureus N315 mutant Mt50DscA.8; test: as above; conditions: Staphylococcus aureus
# [13] = tested on: S. aureus Newman in PMA-differentiated human THP-1 cell line (macrophages); test: Intra-macrophage activity
# Text: The PMA-differentiated human THP-1 cell line (macrophages) was used as cellular host for infection with S. aureus Newman at an MOI (multiplicity of infection) of 10. […] Intracellular bacteria were recovered and serial dilutions were streaked out on CASO-Agar for cfu counting. The reference drug rifampicin reduced the number of intracellular bacteria by ca. 4 logs (at 8×MIC).
# [14] = tested on: S. aureus N315 mutant Mt50DscA.6; test: Susceptibility (MIC) of Disciformycin A-resistant mutant; conditions: Staphylococcus aureus
# [15] = tested on: S. aureus N315 mutant Mt50DscA.1; test: as above; conditions: Staphylococcus aureus
# [16] = tested on: S. aureus N315 wildtype (WT); test: Susceptibility (MIC) of S. aureus N315 wildtype; conditions: Staphylococcus aureus
# [17] = tested on: S. aureus N315 mutant Mt50DscA.4; test: Susceptibility (MIC) of Disciformycin A-resistant mutant; conditions: Staphylococcus aureus
# [18] = tested on: Paenibacillus polymyxa DSM 36; test: MIC by microbroth dilution; conditions: Paenibacillus polymyxa, DSM36, 16 h, 30° C., n.i. = no inhibition up to 67 μg/ml, read-out: MIC
# Procedure: (§3) Bacterial strains. Bacterial wildtype strains used in susceptibility assays were either part of HZI's strain collection or purchased from the German Collection of Microorgansims and Cell Cultures (Deutsche Sammlung von Mikroorganismen und Zellkulturen, DSMZ).
# (§4) Minimum inhibitory concentration (MIC) was determined by microbroth dilution. In brief, overnight cultures of bacteria (EBS medium) were diluted to OD600 0.01. Disciformycin A (1) or B (2) dissolved in DMSO was added directly to the cultures in 96-well plates (Sarstedt, flat bottom) in duplicate and the compound was tested in serial dilution. […] After 16 h incubation at 900 rpm and 30° C. on a microplate shaker (Titramax, Heidolph) absorbance at 600 nm was measured using a microplate reader (POLARstar Omega, BMG Labtech). MIC values were determined by sigmoidal curve fitting.
# [19] = tested on: Staphylococcus aureus Mu50 (MRSA/VRSA) ATCC 700699; test: MIC by microbroth dilution; conditions: 16 h, 30° C., n.i. = no inhibition up to 67 μg/ml
# Procedure: as §3, §4
# [20] = tested on: Bacillus subtilis DSM 10; test: MIC by microbroth dilution; conditions: Bacillus subtilis, DSM10, 16 h, 30° C., n.i. = no inhibition up to 67 μg/ml, read-out: MIC
# Procedure: as §3, §4
# [21] = tested on: Nocardioides simplex DSM 20130; test: MIC by microbroth dilution; conditions: Pimelobacter simplex, DSM20130, 16 h, 30° C., n.i. = no inhibition up to 67 μg/ml, read-out: MIC
# Procedure: as §3, §4
# [22] = tested on: Mycobacterium diemhoferi DSM 43524; test: MIC by microbroth dilution; conditions: Mycobacterium, DSM43524, 16 h, 30° C., n.i. = no inhibition up to 67 μg/ml, read-out: MIC
# Procedure: as §3, §4
# [23] = tested on: Escherichia coli DSM 1116; test: MIC by microbroth dilution; conditions: 16 h, 30° C., n.i. = no inhibition up to 67 μg/ml
# Procedure: as §3, §4
# [24] = tested on: Staphylococcus aureus DSM 346; test: MIC by microbroth dilution; conditions: Staphylococcus aureus, DSM346, 16 h, 30° C., n.i. = no inhibition up to 67 μg/ml, read-out: MIC
# Procedure: as §3, §4
# [25] = tested on: Mycobacterium sp. DSM 43270; test: MIC by microbroth dilution; conditions: 16 h, 30° C., n.i. = no inhibition up to 67 μg/ml
# Procedure: as §3, §4
# [26] = tested on: Staphylococcus aureus (MRSA) DSM-11822; test: MIC by microbroth dilution; conditions: microbroth dilution, 16 h, 30° C., n.i. = no inhibition up to 67 μg/ml
# Procedure: as §3, §4
# [27] = tested on: Micrococcus luteus DSM 20030; test: MIC by microbroth dilution; conditions: 16 h, 30° C., n.i. = no inhibition up to 67 μg/ml
# Procedure: as §3, §4
# [28] = tested on: Staphylococcus aureus Newman; test: MIC by microbroth dilution; conditions: 16 h, 30° C., n.i. = no inhibition up to 67 μg/ml
# Procedure: as §3, §4
# [29] = tested on: Staphylococcus camosus DSM 20501; test: MIC by microbroth dilution; conditions: 30° C., n.i. = no inhibition up to 67 μg/ml
# Procedure: as §3, §4
# [30] = tested on: Pseudomonas aeruginosa DSM 50071; test: MIC by microbroth dilution; conditions: 16 h, 30° C., n.i. = no inhibition up to 67 μg/ml
# Procedure: as §3, §4
# [31] = tested on: Staphylococcus aureus N315 (MRSA); test: MIC by microbroth dilution; conditions: 16 h, 30° C., n.i. = no inhibition up to 67 μg/ml
# Procedure: as §3, §4
# [32] = tested on: Chromobacterium violaceum DSM 30191; test: MIC by microbroth dilution; conditions: 16 h, 30° C., n.i. = no inhibition up to 67 μg/ml
# Procedure: as §3, §4
# [33] = tested on: S. aureus N315 mutant Mt50DscA.3; test: Susceptibility (MIC) of Disciformycin A-resistant mutant; conditions: Staphylococcus aureus
# [34] = tested on: S. aureus N315 mutant Mt50DscA.10; test: as above; conditions: Staphylococcus aureus
# [35] = tested on: S. aureus N315 Mt50DscA.9; test: as above; conditions: Staphylococcus aureus
# [36] = tested on: S. aureus N315 mutant Mt50DscA.5; test: as above; conditions: Staphylococcus aureus
# [37] = tested on: S. aureus N315 mutant Mt50DscA.2; test: as above; conditions: Staphylococcus aureus
# [38] = tested on: Candida albicans ATCC14053; test: Agar diffusion assay; conditions: 50 μL of 0.5 mg in 1 mL methanol per 7 mm hole; n.a. = no activity observed
# Procedure: as §1
# [39] = tested on: Sporobolomyces salmonicolor SBUG 549; test: Agar diffusion assay; conditions: 50 μL of 0.5 mg in 1 mL methanol per 7 mm hole; n.a. = no activity observed
# Procedure: as §1
# [40] = tested on: Penicillium notatum JP 36; test: Agar diffusion assay; conditions: 50 μL of 0.5 mg in 1 mL methanol per 7 mm hole; n.a. = no activity observed
# Procedure: as §1
# [41] = Staphylococcus aureus, read-out: MIC
smiles,measurement,setting,value
"O=C(O)c1cn(C2CC2)c2cc(N3CCNCC3)c(F)cc2c1=O [Ciprofloxacin, reference compound]",MIC90,[1],75.4 µM
same,zone of inhibition at 25 µg/hole,[2],30 mm
same,zone of inhibition at 25 µg/hole,[3],38 mm
same,zone of inhibition at 25 µg/hole,[4],24 mm
same,zone of inhibition at 25 µg/hole,[5],20 mm
same,zone of inhibition at 25 µg/hole,[6],19 mm
same,zone of inhibition at 25 µg/hole,[7],34 mm
"C/C=C(/C)[C@H]1C/C=C(\C)[C@@H](O[C@H]2O[C@H](CO)[C@@H](O)[C@@H]2O)[C@H](OC(=O)CC(C)C)C(=O)/C=C/[C@H](C)C(=O)O1 [Compound 2, disciformycin B]",IC50,[8],> 10 µg/mL
same,IC50,[9],> 10 µg/mL
same,IC50,[10],> 10 µg/mL
same,MIC,[11],32 µg/mL
same,MIC,[12],> 64 µg/mL
same,reduction of the number of intracellular bacteria,"[13]; 18 h, MOI 10, cfu counting, tested at 1×, 4× and 8×MIC",3 logs
same,cytotoxicity towards THP-1 host cells,[13]; 18 h treatment of infected macrophages,without causing any apparent cytotoxicity
same,MIC,[14],> 64 µg/mL
same,MIC,[15],> 64 µg/mL
same,MIC,[16],1 µg/mL
same,MIC,[17],> 64 µg/mL
same,MIC,[18],16.6 µg/mL
same,MIC,[19],0.6 µg/mL
same,MIC,[19]; [41],0.6 µg/mL
same,MIC,[20],0.83 µg/mL
same,MIC,[21],16.6 µg/mL
same,MIC,[22],33.3 µg/mL
same,MIC,[23],n.i.
same,MIC,[24],3.3 µg/mL
same,MIC,[25],n.i.
same,MIC,[26]; [41],0.6 µg/mL
same,MIC,[26],0.6 µg/mL
same,MIC,[27],n.i.
same,MIC,[28],1.2 µg/mL
same,MIC,"[28]; Staphylococcus aureus, NEWMAN, read-out: MIC",1.2 µg/mL
same,MIC,[29]; 16 h,2.4 µg/mL
same,MIC,"[29]; Staphylococcus, DSM20501, 16 h, read-out: MIC",2.4 µg/mL
same,MIC,[30],n.i.
same,MIC,[31],1.2 µg/mL
same,MIC,"[31]; Staphylococcus aureus, MRSA, read-out: MIC",1.2 µg/mL
same,MIC,[32],n.i.
same,MIC,[33],> 64 µg/mL
same,MIC,[34],> 64 µg/mL
same,MIC,[35],> 64 µg/mL
same,MIC,[36],16 µg/mL
same,MIC,[37],> 64 µg/mL
C[C@@H]1[C@H](O)[C@@H](C)/C=C/C=C/C=C/C=C/C=C/C=C/C=C/[C@H](O[C@@H]2O[C@H](C)[C@@H](O)[C@H](N)[C@@H]2O)C[C@@H]2O[C@](O)(C[C@@H](O)C[C@@H](O)[C@H](O)CC[C@@H](O)C[C@@H](O)CC(=O)O[C@H]1C)C[C@H](O)[C@H]2C(=O)O [Amphotericin B],diameter of inhibition zone,[38],22 mm
same,diameter of inhibition zone,[39],19 mm
same,diameter of inhibition zone,[40],18 mm
